Data taken from patent publication US11192869B2, “CFTR regulators and methods of use thereof” (THE REGENTS OF THE UNIVERSITY OF CALIFORNIA, priority 2015, dated 2021).
Entries after “also recorded” stand apart in the source; their conditions may differ.

Key:
[1] = tested on: loperamide-induced mouse model of constipation; assay: Loperamide-induced mouse model of constipation
[2] = Ocular toxicity after chronic topical dosing (slit-lamp, lissamine green); assay type: in vivo; details: chronically treated mice
Procedure: Lissamine green staining. To assess corneal epithelial disruption, 5 μL of lissamine green (LG) dye (1%) was applied to the ocular surface of isofluorane-anesthetized mice. Photographs of the eye were taken using a Nikon Digital camera adapted to an Olympus Zoom Stereo Microscope (Olympus, Center Valley, Pa., USA). Each corneal quadrant was scored on a 3-point scale by one blinded, trained observer, with the extent of staining in each quadrant classified as: 0, no staining; 1, sporadic (involving <25% of the total surface) staining; grade 2, diffuse punctate staining (25-75%); and grade 3, coalesced punctate staining (>75%). The total grade is reported as the sum of scores from all four quadrants, ranging from 0 to 12.

[3] = 7-day chronic administration toxicity study; assay type: in vivo, mouse
Excerpt: (§1) Chronic administration and toxicity studies.

[4] = Pharmacokinetics after ip or oral administration; assay type: in vivo, mouse
Procedure: Pharmacokinetics. All animal experiments were approved by UCSF Institutional Animal Care and Use Committee. Female CD1 mice were treated with 10 mg/kg CFTRact-J027 (saline containing 5% DMSO and 10% Kolliphor HS 15) either intraperitoneally (ip) or orally. Blood was collected at 15, 30, 60, 150, 240 and 360 min after treatment by orbital puncture and centrifuged at 5000 rpm for 15 min to separate plasma. Plasma samples (60 μL) were mixed with 300 μL acetonitrile and centrifuged at 13000 rpm for 20 min, and 90 μL of the supernatant was used for LC/MS. The solvent system consisted of a linear gradient from 5 to 95% acetonitrile over 16 min (0.2 ml/min flow). Mass spectra was acquired on a mass spectrometer (Waters 2695 and Micromass ZQ) using electrospray (+) ionization, mass ranging from 100 to 1500 Da, cone voltage 40 V. Calibration standards were prepared in plasma from untreated mice to which known amounts of CFTRact-J027 were added.

FRT cells = assay: Cytotoxicity, Alamar Blue assay; assay type: cell-based, rat; details: 20 μM
Procedure: as §1
cAMP and cytotoxicity assays. Intracellular cAMP activity was measured using a GloSensor luminescence assay (Promega Corp., Madison, Wis., USA). FRT cells stably transfected with the pGloSensor cAMP plasmid (Promega Corp.) were cultured in white 96-well microplates (Corning Costar) overnight. Cells were then washed three times with PBS and incubated with 5 μM test compound for 10 min in the absence and presence of 100 nM forskolin.

[5] = tested on: mid-jejunal loops of cystic fibrosis mice; assay: In vivo intestinal fluid absorption, closed mid-jejunal loops of CF mice; set-up: species or system mouse; details: 30 min
Procedure: In vivo intestinal secretion and absorption. Mice (wildtype or CF) were given access to 5% dextrose water but not solid food for 24 h before experiments. Mice were anesthetized with isoflurane and body temperature was maintained during surgery at 36-38° C. using a heating pad. A small abdominal incision was made to expose the small intestine, and closed mid-jejunal loops (length 2-3 cm) were isolated by sutures. Loops were injected with 100 μL vehicle alone or […] CFTRact-J027 in vehicle. The abdominal incision was closed with sutures, and mice were allowed to recover from anesthesia. Intestinal loops were removed at 90 min and loop length and weight were measured to quantify fluid secretion. Intestinal absorption was measured in CF mice (to prevent secretion) as described above, except that the loops were removed at 0 or 30 min. Absorption was calculated as 1-(loop weight at 0 min−loop weight at 30 min)/loop weight at 0 min.
In vivo intestinal secretion and absorption. […] Intestinal loops were removed at 90 min and loop length and weight were measured to quantify fluid secretion. Intestinal absorption was measured in CF mice (to prevent secretion) as described above, except that the loops were removed at 0 or 30 min. Absorption was calculated as 1-(loop weight at 0 min−loop weight at 30 min)/loop weight at 0 min.

[6] = In vitro metabolic stability; assay type: in vitro ADME, mouse
Procedure: In vitro metabolic stability. CFTRact-J027 (5 μM) was incubated for specified times at 37° C. with mouse liver microsomes (1 mg protein/ml; Sigma-Aldrich) in potassium phosphate buffer (100 mM) containing 1 mM NADPH, as described. The mixture was then chilled on ice, and 0.5 ml of ice-cold ethyl acetate was added. Samples were centrifuged for 15 min at 3000 rpm, the supernatant evaporated to dryness, and the residue was dissolved in 100 μL mobile phase (acetonitrile:water, 3:1) for LC/MS and assayed as described above.

tear secretion = assay: Tear secretion (phenol red thread); assay type: in vivo, mouse; details: single topical dose, for (at least) four hours

SMILES: Nc1ccc([N+](=O)[O-])cc1-c1nc2ccccc2n(Cc2ccccc2)c1=O [CFTRact-J027, 3-(2-amino-5-nitrophenyl)-1-benzylquinoxalin-2(1H)-one]
- stool weight, pellet number and water content ([1]; intraperitoneal 10 mg/kg, loperamide-treated mice, 3 h): normalizes stool output and water content
- stool output or water content in control mice ([1]; intraperitoneal, non-loperamide-treated mice): did not affect
- effect in cystic fibrosis mice lacking functional CFTR ([1]; loperamide model, CF mice): without effect
- efficacy after chronic administration ([1]; oral 10 mg/kg for 7 days, loperamide 1 h after final dose): remained effective
- stool output and water content ([1]; oral administration (10 mg/kg, 1 h prior to loperamide), 10 mg/kg): normalized stool output and water content; also recorded: effective in normalizing stool output and water content
- LG staining, corneal or conjunctival epithelial disruption [2]: no corneal or conjunctival epithelial disruption
- ocular toxicity by slit-lamp evaluation [2]: no signs of ocular toxicity
- in vivo toxicity after chronic administration ([3]; 7-day study, 10 mg/kg oral, 10 mg/kg): did not show significant; also recorded: without apparent toxicity
- major serum chemistry and blood parameters ([3]; 7-day treated mice): did not affect
- elimination half-life of serum concentration ([4]; 10 mg/kg ip): ~16 min
- bioavailability (in words) ([4]; 10 mg/kg oral): very low bioavailability; also recorded: minimal bioavailability
- blood levels relative to EC50 for CFTR activation ([4]; 10 mg/kg oral): well below the EC50
- cytotoxicity (FRT cells): did not show cytotoxicity
- intestinal fluid absorption [5]: did not affect
- original compound remaining ([6]; 60 min): 7%
- hepatic/microsomal metabolism (in words) ([6]; liver microsomes): rapid in vitro metabolism; also recorded: rapid hepatic metabolism
- elimination half-life ([6]; mouse liver microsomes, NADPH, 5 μM): ~21 min
- increase of tear fluid secretion (tear secretion): approximately two-fold
